The target of one assay is Sirt6 (Homo sapiens, UniProt Q8N6T7). In words: Fluorogenic acyl peptide-AMC assay with Sirt6. Type of assay: biochemical. The settings on record: AMC released by trypsin, fluorescence. From the text: (§1) FIGS. 6A, 6B. Charts showing the difference between fluorogenic acetyl peptide-AMC substrate (A) and heptyl peptide-AMC substrate (B) detection ability of Sirt6 and PfSir2 activity.
(§2) With respect to the first reaction (deacylation by Sirt6, PfSir2a, or Sirt7), the pH for the reaction can be selected by taking the optimal pH of Sirt6, PfSir2a, or Sirt7 into consideration. The pH is typically adjusted to a pH of 6.0 to 8.5, or more particularly, a pH of 6.8 to 8.5. The reaction buffer preferably provides the above-mentioned pH. For example, Tris-HCl, HEPES-KOH, and other such buffers may be used in the instant method. More specifically, for example, 20 mM Tris-HCl having a pH of 7.4 can be used. Generally, NAD is a co-substrate required for Sirt6, PfSir2a, or Sirt7 functioning, and is typically used at about 0.5 mM concentration. Salts and preservatives are generally also included in the reaction solution. […]
(§3) For sirtuins with robust deacetylase activity, a fluorogenic assay has been used to detect the activity and screen for inhibitors/activators (FIG. 5, top). […] After a sirtuin removes the acetyl group, the AMC can be released by trysin, which produces a fluorescence signal. Thus, the presence of a compound that can change the activity of sirtuin being analyzed can be detected by monitoring the fluoroscence released in the reaction. […]

A further assay concerns the target PfSir2a (Plasmodium falciparum, UniProt Q8IE47). Kind of assay: Fluorogenic acyl peptide-AMC assay with PfSir2a. Type of assay: biochemical. Conditions: AMC released by trypsin, fluorescence.
From the text: as §1, §2, §3

The values below come from patent US10072282B2, “Modulators for SIRT6 and assays for screening same” (Cornell University, priority 2010, dated 2018).

Sirt6, sequence (Q8N6T7 whole entry): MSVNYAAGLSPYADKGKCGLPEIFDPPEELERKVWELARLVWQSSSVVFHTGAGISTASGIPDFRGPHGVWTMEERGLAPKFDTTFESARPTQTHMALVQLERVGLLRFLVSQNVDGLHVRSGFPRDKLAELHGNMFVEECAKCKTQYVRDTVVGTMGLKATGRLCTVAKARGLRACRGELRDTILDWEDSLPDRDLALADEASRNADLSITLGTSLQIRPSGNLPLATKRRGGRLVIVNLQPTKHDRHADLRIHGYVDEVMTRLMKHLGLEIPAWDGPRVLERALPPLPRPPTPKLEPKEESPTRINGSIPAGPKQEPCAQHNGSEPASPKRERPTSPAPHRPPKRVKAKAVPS
PfSir2a, sequence (Q8IE47 whole entry): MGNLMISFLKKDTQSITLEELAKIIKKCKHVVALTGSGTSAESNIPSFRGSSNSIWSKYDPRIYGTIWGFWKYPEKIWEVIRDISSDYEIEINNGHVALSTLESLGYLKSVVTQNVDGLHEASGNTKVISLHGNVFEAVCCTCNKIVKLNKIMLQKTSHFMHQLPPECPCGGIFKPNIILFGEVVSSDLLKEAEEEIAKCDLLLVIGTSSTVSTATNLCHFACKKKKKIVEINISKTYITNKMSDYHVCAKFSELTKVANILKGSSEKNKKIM

Consider “ISGASE(heptanoyl-K)-AMC peptide [heptanoyl peptide-AMC]”, for which the “detection of Sirt6 activity with peptide-AMC substrate” value on Sirt6 was “can be used to detect the activity of Sirt6 and PfSir2a”. The “detection of PfSir2a activity with peptide-AMC substrate” value at PfSir2a was “can be used to detect the activity of Sirt6 and PfSir2a”.
For the substance “ISGASE(acetyl-K)-AMC peptide [acetyl peptide-AMC]”, the “detection of Sirt6 activity with peptide-AMC substrate” value on Sirt6 is given as “not detectable”. For the same substance, on PfSir2a, the “detection of PfSir2a activity with peptide-AMC substrate” value was “not detectable”.
